Holding throughout (format): functional, cell-based
The target in assay [1] is Transient receptor potential cation channel subfamily V member 1 (Homo sapiens) (UniProt Q8NER1). As to the kind of experiment: Agonist activity at human TRPV1 expressed HEK293 cells assessed as calcium mobilization at 12 uM. For orientation: A change in cytosolic calcium serves as a functional read-out for many receptors and channels.
Assay [2] shares this target. The assay is described as follows: Agonist activity at human TRPV1 expressed HEK293 cells assessed as reduction of capsaicin-induced calcium mobilization at 1 uM. The arrangement: scale not given: the % may be the effect or the level left.
Assay [3] has the same target. As to the kind of experiment: Agonist activity at human TRPV1 expressed HEK293 cells assessed as calcium mobilization at 10 uM.

Sequence of Transient receptor potential cation channel subfamily V member 1 (Homo sapiens) (Q8NER1 whole entry): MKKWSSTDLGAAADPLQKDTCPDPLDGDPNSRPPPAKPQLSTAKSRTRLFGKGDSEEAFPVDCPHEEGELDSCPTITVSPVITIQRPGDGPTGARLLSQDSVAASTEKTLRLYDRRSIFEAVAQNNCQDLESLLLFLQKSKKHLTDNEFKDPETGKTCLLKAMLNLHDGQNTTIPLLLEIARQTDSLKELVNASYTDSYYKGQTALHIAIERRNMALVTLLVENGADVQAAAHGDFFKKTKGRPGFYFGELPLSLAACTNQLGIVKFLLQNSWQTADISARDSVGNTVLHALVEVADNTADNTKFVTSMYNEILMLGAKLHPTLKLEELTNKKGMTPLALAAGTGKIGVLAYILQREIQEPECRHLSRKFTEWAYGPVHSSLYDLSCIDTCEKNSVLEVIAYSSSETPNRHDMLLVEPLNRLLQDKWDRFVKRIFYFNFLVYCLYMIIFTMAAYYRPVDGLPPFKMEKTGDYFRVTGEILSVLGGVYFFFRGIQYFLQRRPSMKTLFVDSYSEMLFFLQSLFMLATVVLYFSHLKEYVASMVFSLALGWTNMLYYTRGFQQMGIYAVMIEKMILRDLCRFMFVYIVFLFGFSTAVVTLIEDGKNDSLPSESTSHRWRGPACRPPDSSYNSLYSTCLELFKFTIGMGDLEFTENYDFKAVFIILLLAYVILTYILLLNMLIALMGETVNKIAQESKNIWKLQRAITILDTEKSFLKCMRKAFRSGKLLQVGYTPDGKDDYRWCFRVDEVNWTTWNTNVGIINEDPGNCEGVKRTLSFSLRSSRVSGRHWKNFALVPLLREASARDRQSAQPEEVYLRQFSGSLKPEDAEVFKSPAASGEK

Take `CC/C=C/C/C=C/C/C=C/C/C=C/C/C=C/C/C=C/CCC(=O)N1CCc2cc(OC)c(O)cc2C1C` (configuration not stated): the Activity worked out at 14% in assay [1] and 5% in assay [2].
As to `CCCCC/C=C/C/C=C/C/C=C/C/C=C/CCCC(=O)N1CCc2cc(OC)c(O)cc2C1C` (configuration not stated), the Activity in assay [3] was determined as 18%; in assay [2], 35%.
On to `CC/C=C/C/C=C/C/C=C/C/C=C/C/C=C/C/C=C/CCC(=O)N1CCc2cc(O)c(O)cc2C1C` (configuration not stated), for which the values for the Activity in assay [3] and in assay [2] were 25% and 45%, respectively.
`CCCCC/C=C/C/C=C/C/C=C/C/C=C/CCCC(=O)N1CCc2cc(O)c(O)cc2C1C` (configuration not stated): the figures for the Activity in assay [3] and in assay [2] were 55% and 40%, respectively.
For `CCCCC/C=C/C/C=C/CCCCCCCC(=O)N1CCc2cc(O)c(O)cc2C1C` (configuration not stated) the same measures were 36% and 35%.
Consider `CCCCC/C=C/C/C=C/CCCCCCCC(=O)N1CCc2cc(OC)c(O)cc2C1C` (configuration not stated), for which the values for the Activity in assay [3] and in assay [2] were 11% and 25%, respectively.

The values above are taken from ChEMBL document CHEMBL1143752, “Fatty acyl amides of endogenous tetrahydroisoquinolines are active at the recombinant human TRPV1 receptor” (Bioorg Med Chem, 2007).
